Source: patent US8541588B2, “Sulfonamide derivatives” (Pfizer Limited, priority 2009, dated 2013)

Each compound was assayed against T1, Nav1.7 (or SCN9A) channel; HEK cells stably transfected with hSCN9A (Homo sapiens, UniProt Q15858) (assay: Nav1.7 block, PatchXpress 7000 automated whole-cell voltage clamp, estimated IC50 (EIC50)). Conditions: estimated IC50; hSCN9A HEK cells, PatchXpress platform; Examples 283-814.
T1 construct: expressed in transfected cells
Assay type: cell-based

T1 sequence (Q15858 whole entry): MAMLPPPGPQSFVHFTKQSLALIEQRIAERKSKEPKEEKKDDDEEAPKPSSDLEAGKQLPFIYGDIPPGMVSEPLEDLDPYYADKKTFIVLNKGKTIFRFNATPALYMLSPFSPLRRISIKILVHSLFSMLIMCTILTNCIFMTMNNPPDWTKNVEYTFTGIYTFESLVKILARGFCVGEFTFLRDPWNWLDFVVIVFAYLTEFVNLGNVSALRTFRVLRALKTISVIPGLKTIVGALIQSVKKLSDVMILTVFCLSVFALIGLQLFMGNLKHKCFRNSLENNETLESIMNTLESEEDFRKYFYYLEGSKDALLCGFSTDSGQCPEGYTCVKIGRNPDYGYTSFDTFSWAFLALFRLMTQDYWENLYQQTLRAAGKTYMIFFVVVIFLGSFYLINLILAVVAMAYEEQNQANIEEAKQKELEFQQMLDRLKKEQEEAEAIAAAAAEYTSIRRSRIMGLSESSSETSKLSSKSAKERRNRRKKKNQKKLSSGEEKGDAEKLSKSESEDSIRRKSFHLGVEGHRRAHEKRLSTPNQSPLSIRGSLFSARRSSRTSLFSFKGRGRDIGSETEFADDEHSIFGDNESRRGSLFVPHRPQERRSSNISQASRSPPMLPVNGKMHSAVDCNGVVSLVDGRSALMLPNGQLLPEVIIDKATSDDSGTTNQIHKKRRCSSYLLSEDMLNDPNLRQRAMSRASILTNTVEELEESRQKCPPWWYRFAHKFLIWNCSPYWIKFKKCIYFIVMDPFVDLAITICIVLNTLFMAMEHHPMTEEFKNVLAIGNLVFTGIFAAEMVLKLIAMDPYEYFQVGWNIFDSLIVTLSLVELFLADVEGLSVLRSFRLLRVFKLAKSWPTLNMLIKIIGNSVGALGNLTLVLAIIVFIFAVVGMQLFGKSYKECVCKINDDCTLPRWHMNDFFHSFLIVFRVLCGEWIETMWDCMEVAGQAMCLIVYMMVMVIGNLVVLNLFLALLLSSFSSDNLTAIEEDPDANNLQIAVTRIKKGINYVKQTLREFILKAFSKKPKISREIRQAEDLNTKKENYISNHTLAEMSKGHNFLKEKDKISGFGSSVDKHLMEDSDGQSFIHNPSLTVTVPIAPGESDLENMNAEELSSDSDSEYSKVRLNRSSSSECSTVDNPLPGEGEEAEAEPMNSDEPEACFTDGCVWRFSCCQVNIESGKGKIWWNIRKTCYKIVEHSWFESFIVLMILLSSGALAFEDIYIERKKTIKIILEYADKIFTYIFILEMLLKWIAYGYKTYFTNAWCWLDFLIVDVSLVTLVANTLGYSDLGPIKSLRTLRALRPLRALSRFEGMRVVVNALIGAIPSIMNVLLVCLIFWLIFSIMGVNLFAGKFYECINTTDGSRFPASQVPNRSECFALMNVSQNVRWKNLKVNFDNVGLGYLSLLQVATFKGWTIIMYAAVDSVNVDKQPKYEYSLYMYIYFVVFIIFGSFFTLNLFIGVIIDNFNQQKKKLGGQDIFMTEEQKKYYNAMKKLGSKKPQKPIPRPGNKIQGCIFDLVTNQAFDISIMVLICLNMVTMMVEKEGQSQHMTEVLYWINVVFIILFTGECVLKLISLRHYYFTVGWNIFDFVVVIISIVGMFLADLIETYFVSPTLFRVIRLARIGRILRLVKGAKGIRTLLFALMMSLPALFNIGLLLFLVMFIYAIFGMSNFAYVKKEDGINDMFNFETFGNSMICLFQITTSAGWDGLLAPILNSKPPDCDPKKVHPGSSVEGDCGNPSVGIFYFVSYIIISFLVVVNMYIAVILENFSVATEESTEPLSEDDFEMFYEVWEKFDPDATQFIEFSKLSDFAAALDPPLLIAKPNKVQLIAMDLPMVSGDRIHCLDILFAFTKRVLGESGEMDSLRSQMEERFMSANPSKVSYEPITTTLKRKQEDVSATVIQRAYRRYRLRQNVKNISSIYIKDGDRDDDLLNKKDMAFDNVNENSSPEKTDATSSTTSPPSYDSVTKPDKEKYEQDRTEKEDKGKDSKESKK

Point of comparison: `N#Cc1cc(S(=O)(=O)Nc2ncc(Br)s2)ccc1Oc1c(Br)cc(Br)cc1-c1ccccc1` [Example 512, N-(5-Bromo-1,3-thiazol-2-yl)-3-cyano-4-[(3,5-dibromobiphenyl-2-yl)oxy]benzenesulfonamide], IC50 3400 nM. Against it:
- N#Cc1cc(S(=O)(=O)Nc2nccs2)ccc1Oc1ccc(-n2ccc(C(F)(F)F)n2)cc1C(F)(F)F [Example 492, 3-cyano-N-1,3-thiazol-2-yl-4-{2-(trifluoromethyl)-4-[3-(trifluoromethyl)-1H-pyrazol-1-yl]phenoxy}benzenesulfonamide] — 2.3-fold lower, 1500 nM
- N#Cc1cc(S(=O)(=O)Nc2nccs2)ccc1Oc1ccc(Cl)cc1CN1CCOCC1 [Example 493, 4-[4-chloro-2-(morpholin-4-ylmethyl)phenoxy]-3-cyano-N-1,3-thiazol-2-ylbenzenesulfonamide] — 5.9-fold lower, 580 nM
- Cn1ccc(-c2ccc(F)cc2Oc2ccc(S(=O)(=O)Nc3nccs3)cc2C#N)n1 [Example 494, 3-cyano-4-[5-fluoro-2-(1-methyl-1H-pyrazol-3-yl)phenoxy]-N-1,3-thiazol-2-ylbenzenesulfonamide] — within 1.5-fold, 2500 nM
- COCc1cc(Oc2ccc(S(=O)(=O)Nc3nccs3)cc2C#N)ccc1-n1cc(Cl)cn1 [Example 496, 4-[4-(4-chloro-1H-pyrazol-1-yl)-3-(methoxymethyl)phenoxy]-3-cyano-N-1,3-thiazol-2-ylbenzenesulfonamide] — within 1.5-fold, 3800 nM
- N#Cc1cc(S(=O)(=O)Nc2ncns2)ccc1Oc1ccc(F)cc1-c1ccn[nH]1 [Example 499, 3-cyano-4-[4-fluoro-2-(1H-pyrazol-5-yl)phenoxy]-N-1,2,4-thiadiazol-5-ylbenzenesulfonamide] — 18-fold lower, 190 nM
- CCn1nc(C(F)(F)F)cc1-c1ccc(Oc2ccc(S(=O)(=O)Nc3ncns3)cc2C#N)cc1 [Example 500, 3-cyano-4-{4-[1-ethyl-3-(trifluoromethyl)-1H-pyrazol-5-yl]phenoxy}-N-1,2,4-thiadiazol-5-ylbenzenesulfonamide] — 39-fold lower, 88 nM
- Cn1nccc1-c1cc(Br)ccc1Oc1ccc(S(=O)(=O)Nc2ncns2)cc1C#N [Example 501, 4-[4-bromo-2-(1-methyl-1H-pyrazol-5-yl)phenoxy]-3-cyano-N-1,2,4-thiadiazol-5-ylbenzenesulfonamide] — 85-fold lower, 40 nM
- N#Cc1cc(S(=O)(=O)Nc2ncns2)ccc1Oc1ccc(OC(F)(F)F)cc1-c1cn[nH]c1 [Example 502, 3-cyano-4-[2-(1H-pyrazol-4-yl)-4-(trifluoromethoxy)phenoxy]-N-1,2,4-thiadiazol-5-ylbenzenesulfonamide] — 150-fold lower, 22 nM
- N#Cc1cc(S(=O)(=O)Nc2ncns2)ccc1Oc1ccc(Br)cc1-c1cn[nH]c1 [Example 503, 4-[Bromo-2-(1H-pyrazol-4-yl)phenoxy]-3-cyano-N-1,2,4-thiadiazol-5-ylbenzenesulfonamide] — 490-fold lower, 7 nM
- CC(=O)c1cccc(-c2cc(Cl)ccc2Oc2ccc(S(=O)(=O)Nc3ncns3)cc2C#N)c1 [Example 504, 4-[(3′-acetyl-5-chlorobiphenyl-2-yl)oxy]-3-cyano-N-1,2,4-thiadiazol-5-ylbenzenesulfonamide] — 690-fold lower, 4.9 nM
- N#Cc1cc(S(=O)(=O)Nc2ncns2)ccc1Oc1ccc(Cl)cc1C1CCNCC1 [Example 505, 4-(4-chloro-2-piperidin-4-ylphenoxy)-3-cyano-N-1,2,4-thiadiazol-5-ylbenzenesulfonamide] — 68-fold lower, 50 nM
- N#Cc1cc(S(=O)(=O)Nc2ncns2)ccc1Oc1ccc(I)cc1-c1ccn[nH]1 [Example 506, 3-cyano-4-[4-iodo-2-(1H-pyrazol-5-yl)phenoxy]-N-1,2,4-thiadiazol-5-ylbenzenesulfonamide] — 310-fold lower, 11 nM
- Cn1nccc1-c1ccc(I)cc1Oc1ccc(S(=O)(=O)Nc2ncns2)cc1C#N [Example 507, 3-cyano-4-[5-iodo-2-(1-methyl-1H-pyrazol-5-yl)phenoxy]-N-1,2,4-thiadiazol-5-ylbenzenesulfonamide] — 310-fold lower, 11 nM
- Cc1cc(-c2cc(C(F)(F)F)ccc2Oc2ccc(S(=O)(=O)Nc3ncns3)cc2C#N)ccn1 [Example 508, 3-cyano-4-[2-(2-methylpyridin-4-yl)-4-(trifluoromethyl)phenoxy]-N-1,2,4-thiadiazol-5-ylbenzenesulfonamide] — 170-fold lower, 20 nM
- N#Cc1cccc(-c2cc(C(F)(F)F)ccc2Oc2ccc(S(=O)(=O)Nc3ncns3)cc2C#N)c1 [Example 509, 3-cyano-4-{[3′-cyano-5-(trifluoromethyl)biphenyl-2-yl]oxy}-N-1,2,4-thiadiazol-5-ylbenzenesulfonamide] — 110-fold lower, 31 nM
- N#Cc1cc(S(=O)(=O)Nc2ncns2)ccc1Oc1ccc(Cl)cc1-c1ccnn1C(F)F [Example 510, 4-{4-chloro-2-[1-(difluoromethyl)-1H-pyrazol-5-yl]phenoxy}-3-cyano-N-1,2,4-thiadiazol-5-ylbenzenesulfonamide] — 44-fold lower, 77 nM
- N#Cc1cc(S(=O)(=O)Nc2ncns2)ccc1Oc1ccc(Cl)cc1-c1cccc(CN)c1 [Example 511, 4-{[3′-(aminomethyl)-5-chlorobiphenyl-2-yl]oxy}-3-cyano-N-1,2,4-thiadiazol-5-ylbenzenesulfonamide] — 400-fold lower, 8.4 nM
- Cn1nccc1-c1cc(Cl)ccc1Oc1ccc(S(=O)(=O)Nc2ccc(F)cn2)cc1F [Example 514, 4-[4-chloro-2-(1-methyl-1H-pyrazol-5-yl)phenoxy]-3-fluoro-N-(5-fluoropyridin-2-yl)benzenesulfonamide] — 3.1-fold lower, 1100 nM
- Cc1nsc(NS(=O)(=O)c2ccc(Oc3ccc(Cl)cc3-c3ccnn3C)c(F)c2)n1 [Example 515, 4-[4-chloro-2-(1-methyl-1H-pyrazol-5-yl)phenoxy]-3-fluoro-N-(3-methyl-1,2,4-thiadiazol-5-yl)benzenesulfonamide] — 1.8-fold lower, 1900 nM
- O=S(=O)(Nc1cscn1)c1cc(Cl)c(Oc2ccc(F)cc2-c2ccnn2CCO)cc1F [Example 517, 5-chloro-2-fluoro-4-{4-fluoro-2-[1-(2-hydroxyethyl)-1H-pyrazol-5-yl]phenoxy}-N-1,3-thiazol-4-ylbenzenesulfonamide] — 1.5-fold lower, 2200 nM
- CC(C)(C)n1nccc1-c1cc(F)ccc1Oc1cc(F)c(S(=O)(=O)Nc2cscn2)cc1Cl [Example 519, 4-[2-(1-tert-butyl-1H-pyrazol-5-yl)-4-fluorophenoxy]-5-chloro-2-fluoro-N-1,3-thiazol-4-ylbenzenesulfonamide] — 2.8-fold lower, 1200 nM

For `COC(=O)c1cc(Oc2ccc(S(=O)(=O)Nc3nccs3)cc2C#N)ccc1-n1cc(Cl)cn1` [Example 495, methyl 2-(4-chloro-1H-pyrazol-1-yl)-5-{2-cyano-4-[(1,3-thiazol-2-ylamino)sulfonyl]phenoxy}benzoate], the IC50 was >1000 nM.
`N#Cc1cc(S(=O)(=O)Nc2nccs2)ccc1Oc1ccc(-n2cc(Cl)cn2)c(C(=O)O)c1` [Example 497, 2-(4-chloro-1H-pyrazol-1-yl)-5-{2-cyano-4-[(1,3-thiazol-2-ylamino)sulfonyl]phenoxy}benzoic acid] was tested, and the IC50 was >1000 nM.
In the case of `O=S(=O)(Nc1cscn1)c1cc(Cl)c(Oc2cc(C(F)(F)F)ccc2-c2cncnc2)cc1F` [Example 518, 5-chloro-2-fluoro-4-[2-pyrimidin-5-yl-5-(trifluoromethyl)phenoxy]-N-1,3-thiazol-4-ylbenzenesulfonamide], the IC50 is reported as >1000 nM.
In the case of `CC(C)(C)n1ccc(-c2cc(F)ccc2Oc2cc(F)c(S(=O)(=O)Nc3cscn3)cc2Cl)n1` [Example 520, 4-[2-(1-tert-butyl-1H-pyrazol-3-yl)-4-fluorophenoxy]-5-chloro-2-fluoro-N-1,3-thiazol-4-ylbenzenesulfonamide], the IC50 is reported as >1000 nM.
